The values that follow come from PubChem BioAssay AID1189 (EPA DSSTox, 2008).

The structures appear in SMILES notation. Active and inactive are the calls of the source.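 The calls were made as follows: active = a tumor-causing dose value with its tumor site reported for any sex and species group of a rodent or other animal cancer study; inconclusive = only studies judged inadequate by the national testing program; inactive = tested in at least one study, none positive.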

The data set in a line: DSSTox (CPDBAS) Carcinogenic Potency Database Summary SingleCellCall Results. The following applies: animal chronic carcinogenicity bioassays, CPDB summary call. The method, boiled down: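 Categorical carcinogenicity call compiled from published chronic rodent and other animal cancer bioassays; based on the most positive result across experiments for each sex-species, assigned on minimal evidence for or against activity.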
With `C[C@H](CCC(=O)O)[C@H]1CC[C@H]2[C@@H]3CC[C@@H]4C[C@H](O)CC[C@]4(C)[C@H]3CC[C@]12C`, the outcome was inactive.
As for `CN(C)CCN(C)N=O`, the outcome is “active; inactive”.
Consider `FCC(F)(F)F`, for which the result was active.
Turning to `c1ccc(Nc2ccc3ccccc3c2)cc1`, the outcome was inactive.
For the compound `Clc1ccc2c(c1)Oc1ccc(Cl)cc1O2`, the result was inactive.
Consider `O=[N+]([O-])c1ccc(Cl)c([N+](=O)[O-])c1`, for which the result was inactive.
For the compound `CCN(CC)N=O`, the outcome was “active; inactive”.
For `CC(=O)OCc1ccccc1`, the outcome is “active; inactive”.
Take `CC(C(=O)O)c1cccc(C(=O)c2ccccc2)c1` (centres undefined): the result was inactive.
To `COC(=O)C1=C(C)NC(C)=C(C(=O)OCC(C)(C)CN(C)Cc2ccccc2)C1c1cc([N+](=O)[O-])ccc1F` (centres undefined) belongs “inactive”.
Consider `S=C=Nc1ccccc1`, for which the outcome was inactive.
To `C=CC(=O)NCO` belongs “active; inactive”; to `CCC(O)OC(O)CC` (centres undefined), “inactive”; to `Cc1nnc2n1-c1sc(CCc3ccc(CC(C)C)cc3)cc1C(c1ccccc1Cl)=NC2C` (centres undefined), “inactive”.
To `O.O=S(=O)([O-])[O-].[Mn+2]` belongs “inactive”; to `CN(C)C(=S)[S][Pb][S]C(=S)N(C)C`, “inactive”; to `O=NN1CCCC1c1ccc[n+]([O-])c1` (centres undefined), “active; inactive”.
As for `CN(N=O)C(N)=O`, the outcome is “active; inactive”.
For `CN(C)C(=O)NC1CC2CC1C1CCCC21` (centres undefined), the result was inactive.
The result for `C[C@@H]1CCC[C@H](C)N1CCCC(O)(c1ccccc1)c1ccccn1` (some centres undefined) reads “inactive; active”.
As to `O=C(O)CCCC/C=C(\c1ccccc1)c1cccnc1`, the outcome is “inactive; active”.
The result for `COc1ccc([C@@H]2CC(=O)c3c(O)cc(O[C@@H]4O[C@H](CO[C@@H]5O[C@@H](C)[C@H](O)[C@@H](O)[C@H]5O)[C@@H](O)[C@H](O)[C@H]4O)cc3O2)cc1OC` reads “inactive”; that for `CCCCC(CC)COC(=O)CCCCC(=O)OCC(CC)CCCC` (centres undefined), “active”; that for `OC(Cn1cncn1)(Cn1cncn1)c1ccc(F)cc1F`, “active; inactive”.
Turning to `[O-]/[N+](=N\O)c1ccccc1`, the outcome was “active; inactive”.
As to `[O]N=O`, the outcome was inactive.
For the compound `COC(=O)C1=C(C)NC(C)=C(C(=O)OCCc2ccc(N3CCN(C(c4ccccc4)c4ccccc4)CC3)cc2)C1c1cccc([N+](=O)[O-])c1` (centres undefined), the outcome was “inactive; active”.
In the case of `[O-][Br+2]([O-])O`, the outcome was active.
In the case of `CC(C)[N+](=O)[O-]`, the outcome is “inactive; active”.
To `OCc1ccco1` belongs “active”; to `CN(C)C(=S)SC(=S)N(C)C`, “inactive”.
Consider `Cc1ccccc1S(N)(=O)=O`, for which the outcome was active.
For the compound `O=C1CCCCCN1`, the outcome was inactive.
Consider `c1ccc2cc(Nc3ccc(Nc4ccc5ccccc5c4)cc3)ccc2c1`, for which the outcome was “inactive; active”.
Take `O=[N+]([O-])c1cc(N(CCO)CCO)ccc1NCCO`: the outcome was inactive.
As to `NCCCCCCCCCCC(=O)O`, the result was active.
Take `CC1CN(N=O)CC(C)O1` (centres undefined): the result was active.
Regarding `CN(C)P(=O)(N(C)C)N(C)C`, the outcome was active.
`Nc1ccc(-c2ccccc2)cc1`: the outcome was active.
To `CC1CN(/N=C/c2ccc([N+](=O)[O-])o2)C(=O)N1` (centres undefined) belongs “active”.
As for `ClCOCCCCCCOCCl`, the outcome was inactive.
For the compound `Nc1cnn([C@@H]2O[C@H](CO)[C@@H](O)[C@H]2O)c(=O)n1`, the outcome was inactive.
The result for `Cc1cc(C)nc(-c2ccc([N+](=O)[O-])o2)n1` reads “active”.
As to `ClCCOCCCl`, the outcome was active.
